Measured values as given in US20190216779A1, “USE OF NEUROKININ-1 ANTAGONISTS TO TREAT A VARIETY OF PRURITIC CONDITIONS” (MENLO THERAPEUTICS INC., priority 2016, published 2019).

Key:
[1] = In vitro skin permeation of serlopitant in topical formulations, Franz diffusion cell; type: in vitro ADME; conditions: topical formulations B and C, human skin, 37° C., LC-MS/MS
Method: In vitro skin permeation of serlopitant in topical formulations A-D was evaluated using a Franz diffusion cell. FIG. 1 illustrates a Franz diffusion cell. A Franz diffusion cell having a circular permeation area of 4.15 cm^2 and a receptor chamber volume of 19 mL was set up with a thermo-regulated outer water jacket to maintain the temperature at 37° C. The receptor chamber was filled with 19 mL 1×PBS (pH 7.5) containing 10% ethanol and 1% Tween® 80.
Human skin was pre-treated to remove all subcutaneous fat and was cleaned with 70% ethanol before use. The skin was visually inspected to ensure that it was free of any surface irregularity or small holes and was equally divided into four pieces. The skin was then mounted onto the receptor chamber with the stratum corneum side facing up. […]
All samples were processed by solid-phase extraction (SPE) before LC-MS/MS analysis. […] Serlopitant concentrations in samples resulting from formulations A-D were determined by comparison to the standard. Serlopitant was not detected in samples resulting from topical formulations A and D, as expected. […] After an initial lag, serlopitant was detected by LC-MS/MS in the receptor chamber at 6 hours.
The amount of serlopitant retained in the skin was determined at the end of the experiment. […] Extracted serlopitant was quantified by LC-MS/MS. […]

[2] = tested on: subjects with chronic pruritus; assay: Phase II randomized, double-blind, placebo-controlled clinical study of serlopitant in chronic pruritus; type: in vivo, human; conditions: for 4-point responder rate (proportion of subjects achieving ≥4-point improvement on a 10-point scale) in the average VAS itch score: Week 6, placebo 26%; for relief of itch in the NRS score compared to placebo (secondary efficacy endpoint; data not shown) / relief of itch in the VAS score compared to placebo (primary efficacy endpoint): Weeks 4, 5 and 6
Method: A well-controlled human clinical trial assessing the efficacy of serlopitant in the treatment of chronic pruritus was approved by an Institutional Review Board and was conducted in accordance with the International Conference on Harmonisation (ICH) Guidelines for Good Clinical Practices, the U.S. Code of Federal Regulations, the Health Insurance Portability and Accountability Act (HIPAA), and any local regulatory requirements. The study was a Phase II randomized, double-blind, parallel-group, placebo-controlled, multicenter trial designed to evaluate the efficacy and safety of serlopitant versus placebo in subjects with chronic pruritus.
Subjects were randomized to receive a 0.25 mg, 1 mg or 5 mg tablet of serlopitant or a matching placebo tablet. Subjects took one tablet of serlopitant or placebo once daily by mouth for a total of 6 weeks following a loading dose of 3 tablets on the first day of treatment. The maximum study duration for each subject was about 12 weeks and included a screening period of up to 2 weeks, a treatment period of 6 weeks, and a follow-up period of 4 weeks. The screening period was extended up to 44 days if a washout period from any prohibited medications was required.

[3] = Solubility test of serlopitant in Franz cell receptor solution; type: physicochemical
[4] = tested on: subjects with chronic pruritus and prurigo nodularis; assay: Phase II randomized, double-blind, placebo-controlled clinical study of serlopitant in chronic pruritus due to prurigo nodularis; type: in vivo, human; conditions: for Mean difference Serlopitant − Placebo (SE) in change of average itch VAS score from baseline by repeated measures analysis: 5 mg once daily oral, 10 cm VAS
Method: A well-controlled human clinical trial assessing the efficacy of serlopitant in the treatment of pruritus associated with prurigo nodularis (PN) was approved by an Institutional Review Board and was conducted in accordance with the ICH Guidelines for Good Clinical Practices. German regulations on recordkeeping of subject information, and any local regulatory requirements. The study was a Phase II randomized, double-blind, placebo-controlled, multicenter trial designed to evaluate the efficacy and safety of serlopitant versus placebo in subjects with PN. […] The subjects had chronic pruritus due to PN.
Subjects were randomized to receive either a 5-mg tablet of serlopitant or a matching placebo tablet. Subjects took a tablet of serlopitant or placebo once daily by mouth for 8 weeks following a loading dose of 3 tablets on the first day of treatment. The maximum study duration for each subject was about 14 weeks and included a screening period of up to 4 weeks, a treatment period of 8 weeks, and a follow-up period of 2 weeks.
At Baseline, the average itch VAS score (average itch over the past 24 hours) for the serlopitant group and the placebo group was 7.88 and 7.92, respectively. […] Furthermore, a once-daily 5 mg dose of serlopitant led to a 4-point responder rate (the proportion of subjects achieving ≥4-point improvement on a 10-point scale) of 54% with respect to the average itch VAS score at Week 8 compared to 25% for placebo.

[5] = cited from earlier work
[6] = all three doses (0.25 mg, 1 mg, 5 mg once daily, 6 weeks)

C[C@@H](O[C@H]1CC[C@@H]2CN(C3=CC(=O)CC3)C[C@H]2[C@@H]1c1ccc(F)cc1)c1cc(C(F)(F)F)cc(C(F)(F)F)c1 [serlopitant, 3-[(3aR,4R,5S,7aS)-5-[(1R)-1-[3,5-bis(trifluoromethyl)phenyl]ethoxy]-4-(4-fluorophenyl)octahydro-2H-isoindol-2-yl]cyclopent-2-en-1-one]
time at which serlopitant was detected in the receptor chamber after an initial lag [1]: 6 h
Least squares mean % change from baseline in average VAS itch score ([2]; 0.25 mg once daily oral, Week 1, n = 64): −9.1 ± 3.9%
Least squares mean % change from baseline in average VAS itch score ([2]; 0.25 mg once daily oral, Week 2, n = 64): −14.9 ± 4.0%
Least squares mean % change from baseline in average VAS itch score ([2]; 0.25 mg once daily oral, Week 3, n = 64): −21.4 ± 4.0%
Least squares mean % change from baseline in average VAS itch score ([2]; 0.25 mg once daily oral, Week 4, n = 64): −29.0 ± 4.0%
Least squares mean % change from baseline in average VAS itch score ([2]; 0.25 mg once daily oral, Week 5, n = 64): −32.4 ± 4.0%
Least squares mean % change from baseline in average VAS itch score ([2]; 0.25 mg once daily oral, Week 6, n = 64): −34.1 ± 4.1%
Least squares mean % change from baseline in average VAS itch score ([2]; 1 mg once daily oral, Week 1, n = 65): −11.8 ± 3.9%
Least squares mean % change from baseline in average VAS itch score ([2]; 1 mg once daily oral, Week 2, n = 65): −22.0 ± 4.0%
Least squares mean % change from baseline in average VAS itch score ([2]; 1 mg once daily oral, Week 3, n = 65): −30.2 ± 4.0%
Least squares mean % change from baseline in average VAS itch score ([2]; 1 mg once daily oral, Week 4, n = 65, p < 0.05 vs placebo): −33.1 ± 4.0 %
Least squares mean % change from baseline in average VAS itch score ([2]; 1 mg once daily oral, Week 5, n = 65, p < 0.05 vs placebo): −38.0 ± 4.1 %
Least squares mean % change from baseline in average VAS itch score ([2]; 1 mg once daily oral, Week 6, n = 65, p < 0.05 vs placebo): −41.4 ± 4.0 %
Least squares mean % change from baseline in average VAS itch score ([2]; 5 mg once daily oral, Week 1, n = 64): −12.0 ± 3.9%
Least squares mean % change from baseline in average VAS itch score ([2]; 5 mg once daily oral, Week 2, n = 64): −20.3 ± 4.0%
Least squares mean % change from baseline in average VAS itch score ([2]; 5 mg once daily oral, Week 3, n = 64): −28.8 ± 4.0%
Least squares mean % change from baseline in average VAS itch score ([2]; 5 mg once daily oral, Week 4, n = 64, p < 0.05 vs placebo): −34.2 ± 4.0 %
Least squares mean % change from baseline in average VAS itch score ([2]; 5 mg once daily oral, Week 5, n = 64, p < 0.05 vs placebo): −37.3 ± 4.0 %
Least squares mean % change from baseline in average VAS itch score ([2]; 5 mg once daily oral, Week 6, n = 64, p < 0.05 vs placebo): −42.5 ± 4.1 %
intensity of all adverse events [2, 6]: mild or moderate intensity
most common treatment-emergent adverse events [2, 6]: diarrhea, somnolence and headache in the low single-digit percent
tolerability and safety profile [2, 6]: well tolerated and exhibited an excellent safety profile
4-point responder rate (proportion of subjects achieving ≥4-point improvement on a 10-point scale) in the average VAS itch score ([2]; once-daily 1 mg dose): 42%
relief of itch in the NRS score compared to placebo (secondary efficacy endpoint; data not shown) ([2]; once-daily 1 mg dose): statistically significant improvement in relief of itch
relief of itch in the VAS score compared to placebo (primary efficacy endpoint) ([2]; once-daily 1 mg dose): statistically significant improvement in relief of itch
4-point responder rate (proportion of subjects achieving ≥4-point improvement on a 10-point scale) in the average VAS itch score ([2]; once-daily 5 mg dose): 53%
relief of itch in the NRS score compared to placebo (secondary efficacy endpoint; data not shown) ([2]; once-daily 5 mg dose): statistically significant improvement in relief of itch
relief of itch in the VAS score compared to placebo (primary efficacy endpoint) ([2]; once-daily 5 mg dose): statistically significant improvement in relief of itch
solubility in receptor solution ([3]; 1×PBS (pH 7.5) containing 10% ethanol and 1% Tween 80, 1 hour of incubation at 37° C.): remained soluble at concentrations of 0.5, 5 and 50 ug/mL
change of solubility if Tween 80 was not used ([3]; receptor solution without Tween 80): decreased significantly
change of solubility if ethanol was not used ([3]; receptor solution without ethanol): decreased slightly
Mean difference Serlopitant − Placebo (SE) in change of average itch VAS score from baseline by repeated measures analysis ([4]; Week 2, 95% CI (−1.5, −0.2), p 0.0111): −0.9 (0.34)
Mean difference Serlopitant − Placebo (SE) in change of average itch VAS score from baseline by repeated measures analysis ([4]; Week 4, 95% CI (−1.8, −0.1), p 0.0248): −1.0 (0.43)
Mean difference Serlopitant − Placebo (SE) in change of average itch VAS score from baseline by repeated measures analysis ([4]; Week 8, 95% CI (−2.6, −0.7), p 0.0005): −1.7 (0.47)
adverse event diarrhea (most common adverse events) ([4]; 5 mg once daily, 8 weeks): 11%
adverse event nasopharyngitis (most common adverse events) ([4]; 5 mg once daily, 8 weeks): 17%
intensity of treatment-emergent adverse events ([4]; 5 mg once daily, 8 weeks): generally mild or moderate
tolerability and safety ([4]; 5 mg once daily, 8 weeks): well tolerated and safe
improvement in pruritus on the IGA vs placebo ([4]; once-daily 5 mg dose): greater improvement
4-point responder rate with respect to the average itch VAS score ([4]; once-daily 5 mg dose, Week 8, placebo 25%): 54%
4-point responder rate with respect to the worst itch NRS score ([4]; once-daily 5 mg dose, Week 8, placebo 26%): 47%
proportion of subjects reporting “no/mild pruritus” on the VRS ([4]; once-daily 5 mg dose, Week 8, placebo 28.9%): 54.4%
proportion of subjects reporting improvement in pruritus on the PGA ([4]; once-daily 5 mg dose, Week 8, placebo 54.3%): 82.5%
decrease in the average itch VAS score from Baseline compared to placebo ([4]; once-daily 5 mg dose, Weeks 2, 4, and 8): statistically significant decrease
improvement in the worst itch VAS score from Baseline to Week 8 vs placebo ([4]; once-daily 5 mg dose, p=0.0024): statistically significantly, greater improvement
decrease in the average itch NRS score from Baseline to Week 8 vs placebo ([4]; once-daily 5 mg dose, p=0.0069): statistically significantly greater decrease

C[C@@H](O[C@H]1CC[C@@H]2CN(C3=CC(=O)CC3)C[C@H]2[C@@H]1c1ccc(F)cc1)c1cc(C(F)(F)F)cc(C(F)(F)F)c1 [Form I]
thermodynamic stability of polymorph ([5]; Form I compared with Form II): thermodynamically more stable below 70 °C
hygroscopicity ([5]; all tested relative humidity conditions): non-hygroscopic
